Patent US12564191B2, “Pesticidal compounds” (priority 2020, dated 2026)

Experiments:
Type in all cases: in vivo
[1] = test system: Yellow fever mosquito (Aedes aegypti); assay: whole plant or invertebrate; conditions: 48 h, freshly hatched larvae in tap water, assessed after 2 days, read-out: larval mortality in comparison with untreated controls
Experimental: B.6. Yellow Fever Mosquito (Aedes aegypti)
For evaluating control of yellow fever mosquito (Aedes aegypti) the test unit consisted of 96-well-microtiter plates containing 200 μl of tap water per well and 5-15 freshly hatched A. aegypti larvae. The active compounds were formulated using a solution containing 75% (v/v) water and 25% (v/v) DMSO. Different concentrations of formulated compounds or mixtures were sprayed onto the insect diet at 2.5 μl, using a custom built micro atomizer, at two replications.
After application, microtiter plates were incubated at 28+1° C., 80+5% RH for 2 days. Larval mortality was then visually assessed.

[2] = test system: Tobacco budworm (Heliothis virescens); assay: Tobacco budworm (Heliothis virescens) microtiter diet test, egg and larval mortality; conditions: 120 h, sprayed onto insect diet, assessed after 5 days, read-out: egg and larval mortality in comparison with untreated controls
Experimental: B.5. Tobacco Budworm (Heliothis virescens)
For evaluating control of tobacco budworm (Heliothis virescens) the test unit consisted of 96-well-microtiter plates containing an insect diet and 15-25 H. virescens eggs.
The compounds were formulated using a solution containing 75% v/v water and 25% v/v DMSO. Different concentrations of formulated compounds were sprayed onto the insect diet at 10 μl, using a custom built micro atomizer, at two replications.
After application, microtiter plates were incubated at about 28±1° C. and about 80±5% relative humidity for 5 days. Egg and larval mortality was then visually assessed.

[3] = test system: Diamond back moth (Plutella xylostella); assay: Diamond back moth (Plutella xylostella) cabbage leaf dip test; conditions: foliar, 3rd instar larvae, 72 hours after treatment, read-out: mortality in comparison with untreated controls
Experimental: B.2. Diamond Back Moth (Plutella xylostella)
The active compound is dissolved at the desired concentration in a mixture of 1:1 (vol:vol) distilled water:acetone. Surfactant (Alkamuls® EL 620) is added at a rate of 0.1% (vol/vol). The test solution is prepared at the day of use.
Leaves of cabbage were dipped in test solution and air-dried. Treated leaves were placed in petri dish enlined with moist filter paper and inoculated with ten 3rd instar larvae. Mortality was recorded 72 hours after treatment. Feeding damages were also recorded using a scale of 0-100%.

[4] = test system: Western flower thrips (Frankliniella occidentalis); assay: Western flower thrips (Frankliniella occidentalis) cotton leaf disc test; conditions: foliar, 48 h, treated cotton leaf discs, 2 DAT, read-out: mortality in comparison with untreated controls
Experimental: B.9. Western Flower Thrips (Frankliniella occidentalis)
The active compounds were formulated by a Tecan liquid handler in 100% cyclohexanone as a 10,000 ppm solution supplied in tubes. The 10,000 ppm solution was serially diluted in 100% cyclohexanone to make interim solutions. These served as stock solutions for which final dilutions were made by the Tecan in 50% acetone:50% water (v/v) into 10 or 20 ml glass vials. A nonionic surfactant (Kinetic®) was included in the solution at a volume of 0.01% (v/v). The vials were then inserted into an automated electrostatic sprayer equipped with an atomizing nozzle for application to plants/insects.
Small (˜2″ in height) cotton plants are sprayed with test compounds at concentrations ranging from 300 to 0.01 ppm in acetone/water through the automated VPS. After drying, cotton leaves are removed and circular leaf discs (˜1 cm diameter) are punched from the treated surface and transferred to clean 20 mL scintillation vials. Ten Western flower thrips (FRANOC) are aspirated into each scintillation vial. The vials with the leaf discs and thrips are kept in an upright incubator at 25° C. and 50% relative humidity with a 14:10 light:dark photoperiod. Each treatment is replicated twice.
Thrips mortality is assessed at 2 DAT (days after treatment), counting all thrips both dead and alive. [The average absolute mortality is calculated for each treatment.]

[5] = test system: Orchid thrips (Dichromothrips corbetti); assay: Orchid thrips (Dichromothrips corbetti) floral-immersion test; conditions: adult thrips, 72 hours after treatment, read-out: mortality in comparison with untreated controls
Experimental: B.7. Orchid Thrips (Dichromothrips corbetti)
Dichromothrips corbetti adults used for bioassay were obtained from a colony maintained continuously under laboratory conditions. For testing purposes, the test compound is diluted in a 1:1 mixture of acetone:water (vol:vol), plus Kinetic® HV at a rate of 0.01% v/v.
Thrips potency of each compound was evaluated by using a floral-immersion technique. All petals of individual, intact orchid flowers were dipped into treatment solution and allowed to dry in Petri dishes. Treated petals were placed into individual re-sealable plastic along with about 20 adult thrips. All test arenas were held under continuous light and a temperature of about 28° C. for duration of the assay. After 3 days, the numbers of live thrips were counted on each petal. The percent mortality was recorded 72 hours after treatment.

[6] = test system: Southern Armyworm (Spodoptera eridania), 2nd Instar Larvae; assay: Southern armyworm 2nd instar larvae on sprayed lima bean plants; conditions: 96 h, 4 days after treatment, read-out: mortality in comparison with untreated controls
Experimental: B.4. Southern Armyworm (Spodoptera eridania), 2nd Instar Larvae
(§1) The active compounds were formulated in cyclohexanone as a 10,000 ppm solution supplied in tubes. The tubes were inserted into an automated electrostatic sprayer equipped with an atomizing nozzle and they served as stock solutions for which lower dilutions were made in 50% acetone:50% water (v/v). A nonionic surfactant (Kinetic®) was included in the solution at a volume of 0.01% (v/v).
Lima bean plants (variety Sieva) were grown 2 plants to a pot and selected for treatment at the 1st true leaf stage. Test solutions were sprayed onto the foliage by an automated electrostatic plant sprayer equipped with an atomizing spray nozzle. The plants were dried in the sprayer fume hood and then removed from the sprayer. Each pot was placed into perforated plastic bags with a zip closure. About 10 to 11 armyworm larvae were placed into the bag and the bags zipped closed. Test plants were maintained in a growth room at about 25° C. and about 20-40% relative humidity for 4 days, avoiding direct exposure to fluorescent light (24 hour photoperiod) to prevent trapping of heat inside the bags. Mortality and reduced feeding were assessed 4 days after treatment, compared to untreated control plants.

[7] = test system: Silverleaf Whitefly (Bemisia argentifolih) (Adults); assay: Silverleaf whitefly adults on sprayed cotton plants; conditions: 300 ppm, 3 days after treatment
Source text: B.3 Silverleaf Whitefly (Bemisia argentifolih) (Adults)
as §1, with “non-ionic” for “nonionic”
Cotton plants at the cotyledon stage (one plant per pot) were sprayed by an automated electrostatic plant sprayer equipped with an atomizing spray nozzle. The plants were dried in the sprayer fume hood and then removed from the sprayer. Each pot was placed into a plastic cup and about 10 to 12 whitefly adults (approximately 3-5 days old) were introduced. The insects were collected using an aspirator and a nontoxic Tygon® tubing connected to a barrier pipette tip. The tip, containing the collected insects, was then gently inserted into the soil containing the treated plant, allowing insects to crawl out of the tip to reach the foliage for feeding. Cups were covered with a reusable screened lid. […] Mortality was assessed 3 days after treatment, compared to untreated control plants.

SMILES: Cc1ccc(C(C)C)c(N2C(=O)CS/C2=N\N=C\c2ccc(-c3nccc(NC(=O)c4ccc(C(F)(F)F)cc4)n3)cc2)c1 [Example C-5, N-[2-[4-[(E)-[(Z)-[3-(2-isopropyl-5-methyl-phenyl)-4-oxo-thiazolidin-2-ylidene]hydrazono]methyl]phenyl]pyrimidin-4-yl]-4-(trifluoromethyl)benzamide]
- mortality at 2500 ppm [1]: > 75%
- mortality at 2500 ppm [2]: > 75%

SMILES: CC(C)c1ccccc1/N=C1\SCC(=O)N1/N=C/c1ccc(-c2cc(NC(=O)c3ccc(OC(F)(F)F)cc3)ncn2)cc1 [Example C-12, N-[6-[4-[(E)-[(2Z)-2-(2-isopropylphenyl)imino-4-oxo-thiazolidin-3-yl]iminomethyl]phenyl]pyrimidin-4-yl]-4-(trifluoromethoxy)benzamide]
- mortality at 500 ppm [3]: > 75%
- mortality at 300 ppm [4]: > 75%
- mortality at 500 ppm [5]: > 75%
- mortality at 500 ppm [6]: > 75%
- mortality at 2500 ppm [2]: > 75%

SMILES: CO[C@@H]1[C@@H](OC)[C@H](C)O[C@@H](O/N=C/c2ccc(-c3cc(NC(=O)c4ccc(OC(F)(F)F)cc4)ncn3)cc2)[C@@H]1OC [Example C-13, 4-(trifluoromethoxy)-N-[6-[4-[(E)-[(2S,3R,4R,5S,6S)-3,4,5-trimethoxy-6-methyl-tetrahydropyran-2-yl]oxyiminomethyl]phenyl]pyrimidin-4-yl]benzamide]
- mortality at 2500 ppm [2]: > 75%

SMILES: CC(C)c1ccccc1NC(=S)NN=Cc1ccc(-c2cc(C(=N)Nc3ccc(OC(F)(F)F)cc3)ncn2)cc1 [Example C-25]
- mortality in comparison with untreated controls [7]: over 75%
